From ChEMBL document CHEMBL1157969, “Stellettin A induces oxidative stress and apoptosis in HL-60 human leukemia and LNCaP prostate cancer cell lines” (J Nat Prod, 2006)
Values after ≈ are worked out from the molar mass of the structure shown. Active and inactive are the calls of the source. The rule behind the calls is not given here.

What was measured:
[1] = test system: HL-60; assay: Cytotoxicity against human HL60 cells after 48 hrs by MTT assay; type: functional, cell-based; settings: HL-60, 48 h
[2] = test system: HL-60; assay: Induction of apoptosis in human HL60 cells assessed as apoptotic bodies at 4 ug/mL after 24 hrs by fluorescence microscopy; type: functional
[3] = test system: LNCaP; assay: Induction of apoptosis in human LNCaP cells assessed as apoptotic bodies at 20 ug/mL after 24 hrs by fluorescence microscopy; type: functional
[4] = test system: HL-60; assay: Induction of apoptosis in human HL60 cells at 4 ug/mL after 24 hrs in presence of antisense caspase-3 oligonucleotide; type: functional, cell-based
[5] = test system: HL-60; assay: Induction of apoptosis in human HL60 cells at 4 ug/mL after 24 hrs in presence of sense caspase-3 oligonucleotide; type: functional
[6] = test system: HL-60; assay: Induction of apoptosis in human HL60 cells assessed as mean fluorescence intensity of mitochondrial membrane potential dissipation at 1 ug/mL after 24 hrs; type: functional
[7] = test system: HL-60; assay: Induction of apoptosis in human HL60 cells assessed as mean fluorescence intensity of mitochondrial membrane potential dissipation at 4 ug/mL after 24 hrs; type: functional
[8] = test system: LNCaP; assay: Induction of apoptosis in human LNCaP cells assessed as mean fluorescence intensity of mitochondrial membrane potential dissipation at 20 ug/mL after 24 hrs; type: functional
[9] = test system: HL-60; assay: Induction of apoptosis in human HL60 cells assessed as increase in FasL levels after 24 hrs by immunoblot; type: functional, cell-based
[10] = test system: LNCaP; assay: Induction of apoptosis in human LNCaP cells assessed as increase in FasL levels after 24 hrs by immunoblot; type: functional, cell-based
[11] = test system: HL-60; assay: Induction of apoptosis in human HL60 cells assessed as decrease in Bcl-2 levels at 1 […] after 24 hrs by immunoblot; type: functional, cell-based
[12] = test system: LNCaP; assay: Induction of apoptosis in human LNCaP cells assessed as decrease in Bcl-2 levels at 20 […] after 24 hrs by immunoblot; type: functional, cell-based
[13] = test system: HL-60; assay: Induction of apoptosis in human HL60 cells assessed as increase in caspase-3 levels at 1 […] after 24 hrs by immunoblot; type: functional, cell-based
[14] = test system: LNCaP; assay: Induction of apoptosis in human LNCaP cells assessed as increase in caspase-3 levels at 20 […] after 24 hrs by immunoblot; type: functional, cell-based
[15] = test system: HL-60; assay: Induction of apoptosis in human HL60 cells assessed as increase in transcription of NADPH oxidase component gp91phox after 5 hrs by immunoblot; type: functional, cell-based
[16] = test system: LNCaP; assay: Induction of apoptosis in human LNCaP cells assessed as increase in transcription of NADPH oxidase component gp91phox after 5 hrs by immunoblot; type: functional, cell-based
[17] = test system: HL-60; assay: Induction of apoptosis in human HL60 cells assessed as increase in transcription of NADPH oxidase component p22phox after 5 hrs by immunoblot; type: functional, cell-based
[18] = test system: LNCaP; assay: Induction of apoptosis in human LNCaP cells assessed as increase in transcription of NADPH oxidase component p22phox after 5 hrs by immunoblot; type: functional, cell-based
[19] = test system: HL-60; assay: Induction of apoptosis in human HL60 cells assessed as increase in transcription of NADPH oxidase component p67phox after 5 hrs by immunoblot; type: functional, cell-based
[20] = test system: LNCaP; assay: Induction of apoptosis in human LNCaP cells assessed as increase in transcription of NADPH oxidase component p67phox after 5 hrs by immunoblot; type: functional, cell-based
[21] = test system: HL-60; assay: Induction of apoptosis in human HL60 cells assessed as increase in transcription of NADPH oxidase component p47phox after 5 hrs by immunoblot; type: functional, cell-based
[22] = test system: LNCaP; assay: Induction of apoptosis in human LNCaP cells assessed as increase in transcription of NADPH oxidase component p47phox after 5 hrs by immunoblot; type: functional, cell-based
[23] = test system: HL-60; assay: Induction of apoptosis in human HL60 cells assessed as increase in transcription of NOX1 after 5 hrs by immunoblot; type: functional, cell-based
[24] = test system: HL-60; assay: Induction of apoptosis in human HL60 cells assessed as increase in transcription of NOX4 after 5 hrs by immunoblot; type: functional, cell-based
[25] = test system: HL-60; assay: Induction of apoptosis in human HL60 cells assessed as increase in transcription of NOX5 after 5 hrs by immunoblot; type: functional, cell-based
[26] = test system: LNCaP; assay: Induction of apoptosis in human LNCaP cells assessed as ROS generation; type: functional, cell-based
[27] = test system: LNCaP; assay: Cytotoxicity against human LNCaP cells after 48 hrs by MTT assay; type: functional, cell-based

C\C(=C/C=C/C(C)=C1/C(=O)C[C@H]2[C@@]3(C)CCC(=O)C(C)(C)[C@@H]3CC[C@]12C)c1ccc(C)c(=O)o1 [STELLETIN A]
IC50 [1]: 0.4 µg/mL (≈ 0.865 µM)
Activity [2]: 56%
Activity [3]: <10%
Activity [4]: inactive
Activity [5]: 51%
Activity [6]: 23.28
Activity [7]: 3.09
Activity [8]: 38.82
Activity [9]: Dose-dependent effect
Activity [10]: Dose-dependent effect
Activity [11]: Active
Activity [12]: inactive
Activity [13]: Active
Activity [14]: inactive
Activity [15]: Dose-dependent effect
Activity [16]: inactive
Activity [17]: Dose-dependent effect
Activity [18]: inactive
Activity [19]: Dose-dependent effect
Activity [20]: inactive
Activity [21]: Dose-dependent effect
Activity [22]: inactive
Activity [23]: inactive
Activity [24]: inactive
Activity [25]: inactive
Activity [26]: Active
IC50 [27]: 120 µg/mL (≈ 259 µM)
